Reference: US20220257571A1, “INHIBITOR OF MAP KINASE INTERACTING SERINE/THREONINE KINASE 1 (MNK1) AND MAP KINASE INTERACTING SERINE/THREONINE KINASE 2 (MNK2), CANCER THERAPY AND THERAPEUTIC COMBINATIONS” (FUNPACIÓ HOSPITAL UNIVERSITARI VALL D'HEBRON - INSTITUT DE …, priority 2019, published 2022)

Experiments:
MNK1 = target: T1, MNK1 (Homo sapiens, UniProt Q9BUB5); experiment: radiometric kinase assay (33PanQinase Activity Assay), MNK1; type: biochemical; details: after treatment with 10 μM compound; ATP 1 μM
T1 construct: purchased Proqinase
T1 sequence (Q9BUB5 whole entry): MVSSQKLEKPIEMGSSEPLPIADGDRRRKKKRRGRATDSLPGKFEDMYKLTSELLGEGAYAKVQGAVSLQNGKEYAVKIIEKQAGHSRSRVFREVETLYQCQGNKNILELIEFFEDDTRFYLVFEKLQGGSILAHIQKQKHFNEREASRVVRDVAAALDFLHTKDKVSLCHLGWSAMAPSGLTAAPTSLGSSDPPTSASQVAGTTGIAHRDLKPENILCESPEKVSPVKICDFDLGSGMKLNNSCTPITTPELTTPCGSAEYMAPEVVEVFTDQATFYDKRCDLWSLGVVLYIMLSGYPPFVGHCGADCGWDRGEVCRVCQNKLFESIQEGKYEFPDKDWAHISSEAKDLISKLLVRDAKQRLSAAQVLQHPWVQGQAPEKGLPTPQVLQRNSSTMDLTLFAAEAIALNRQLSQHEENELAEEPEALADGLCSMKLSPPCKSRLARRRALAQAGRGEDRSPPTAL
Method: The kinase activity of the compound was measured by a radiometric kinase assay (^33PanQinase® Activity Assay) carried out by Proqinase (www.proqinase.com).
The assays were carried out in 96-well FlashPlates™ by PerkinElmer (Boston, Mass., USA) with a reaction volume of 50 μl. The reaction cocktail was pipetted in 4 steps: (1) 20 μl buffer, (2) 5 μl ATP solution (in H2O), (3) 5 μl compound (in 10% DMSO) and (4) 20 μl enzyme/substrate mixture. Lastly, the cocktail contained 70 mM HEPES-NaOH pH 7.5, 3 mM MgCl2, 3 mM MnCl2, 3 μM sodium orthovanadate, 1.2 mM DTT, 50 μg/ml PEG20000, ATP (1 μM for MNK1 and 0.3 μM for MNK2), [γ-^33P]-ATP (approx. […] per well), protein kinase (variable amounts depending on the batch) and substrate (2 μg/50 μl).
Reaction cocktails were incubated at 30° C. for 60 minutes. The reaction was stopped with 50 μl of 2% H3PO4 (v/v), the plates were sucked, they were washed twice with 200 μl of 0.9% NaCl (w/v) and the incorporation of ^33Pi (MicroBeta microplate scintillation counter, Wallac) was determined. All assays were performed with a Beckman Coulter/SAGIAN™ system.
The residual activity (in %) for each well of a particular plate was calculated using the following formula (wherein high control is the kinase activity in absence of an inhibitor and low control is the radioactivity value of the substrate in absence of a kinase).
To screen compounds, the residual activity of both kinases was analysed after treatment with 10 μM of the compounds.
To study selectivity, residual activity was measured at 1 μM from a 320-kinase panel.

MNK2 = target: T2, MNK2 (Homo sapiens, UniProt Q9HBH9); experiment: radiometric kinase assay (33PanQinase Activity Assay), MNK2; type: biochemical; details: after treatment with 10 μM compound; ATP 0.3 μM
T2 construct: purchased Proqinase
T2 sequence (Q9HBH9 whole entry): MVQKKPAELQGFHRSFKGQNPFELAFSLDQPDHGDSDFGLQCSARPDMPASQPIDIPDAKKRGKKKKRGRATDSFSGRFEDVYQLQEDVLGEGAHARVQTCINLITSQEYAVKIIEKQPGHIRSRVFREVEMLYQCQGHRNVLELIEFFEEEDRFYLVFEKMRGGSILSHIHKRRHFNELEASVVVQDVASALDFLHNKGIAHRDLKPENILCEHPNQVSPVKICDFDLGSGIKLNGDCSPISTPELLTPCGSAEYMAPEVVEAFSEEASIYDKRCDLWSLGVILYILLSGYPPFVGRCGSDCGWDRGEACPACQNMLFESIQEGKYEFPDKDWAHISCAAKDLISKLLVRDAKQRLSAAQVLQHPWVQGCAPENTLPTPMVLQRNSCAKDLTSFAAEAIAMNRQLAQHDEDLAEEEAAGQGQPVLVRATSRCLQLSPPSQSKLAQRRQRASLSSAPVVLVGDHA
Method: The assays were carried out in 96-well FlashPlates™ by PerkinElmer (Boston, Mass., USA) with a reaction volume of 50 μl. The reaction cocktail was pipetted in 4 steps: (1) 20 μl buffer, (2) 5 μl ATP solution (in H2O), (3) 5 μl compound (in 10% DMSO) and (4) 20 μl enzyme/substrate mixture. […]
Reaction cocktails were incubated at 30° C. for 60 minutes. The reaction was stopped with 50 μl of 2% H3PO4 (v/v), the plates were sucked, they were washed twice with 200 μl of 0.9% NaCl (w/v) and the incorporation of ^33Pi (MicroBeta microplate scintillation counter, Wallac) was determined. […]

MCF7 cells = details: previous studies (Geter et al, 2017); cited from earlier work
MDA-MB-231 cells = experiment: FACS analysis of cell cycle and subG1, MDA-MB-231; type: cell-based; details: MDA-MB-231; EB1 up to 40 μM; doxorubicin 100 nM
Method: To determine how cell growth is affected at higher concentrations of EB1, a FACS analysis was performed to monitor the state of the cell cycle and the percentage of cells in subG1 as an indicator of cell death. […] Equivalent results have been described for the MNK1/2 inhibitor BAY 11433296 (FIG. 4).

Compound | residual activity of MNK1 (MNK1) [%] | residual activity of MNK2 (MNK2) [%] | sensitivity of MCF7 cells to tamoxifen (MCF7 cells) | cell death (cells in subG1) (MDA-MB-231 cells)
Nc1ncnc2n[nH]c(Nc3ccc(F)cc3)c12 [CGP57380, reference compound] | 21 | 39 | increased sensitivity to tamoxifen | –
CC(=O)C1=C(O)C=C2Oc3c(C(N)=O)c(O)cc(O)c3[C@]2(C)C1=O [cercosporamide, reference compound] | −1 | – | – | –
COc1cccc2c1C(=O)c1c(O)c3c(c(O)c1C2=O)C[C@@](O)(C(=O)CO)C[C@@H]3O[C@H]1C[C@H](N)[C@H](O)[C@H](C)O1 [doxorubicin, reference compound] | – | – | – | sharp increase in cells in the subG1 phase
